Measured values from patent EP2830605B1, “A COMBINATION MEDICAMENT COMPRISING PHENYLEPHRINE AND PARACETAMOL” (priority 2013, dated 2014).
Counter-ions that a name gives are not always drawn. Like-named read-outs stand apart in the source and are kept apart here.

Experiments:
[1] = in vivo
[2] = cited from earlier work

Ratio (increase of AUCtot), calculation for paracetamol 650 mg ([1]; human): ~1.73 | dose of phenylephrine hydrochloride alone that is similar [1]: 16 to 20 mg
Compound: CNC[C@H](O)c1cccc(O)c1 [10 mg phenylephrine hydrochloride, phenylephrine hydrochloride]
Adverse Event Rate ([2]; dose 10mg, hydrochloride): 12.5% | Adverse Event Rate ([2]; dose 10mg, listed as Phenylephrine HCL, hydrochloride): 12.5% | Adverse Event Rate ([2]; dose 15mg): 43.8% | Adverse Event Rate ([2]; dose 25mg): 81.3%
